This note sets out measurements from ChEMBL document CHEMBL1201862, “PubChem BioAssay data set” (2004).

The nature of experiment [1]: cells. It counts as functional, cell-based.
The test system of experiment [2] is INS1. In words: beta cell apoptosis inhibitors, cytokine rescue, dose response, luminescence, retest (AID 449756).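 Also: cell death triggered by IL-1 beta plus TNF-alpha plus IFN-gamma mixture; protective hits raise ATP signal compared with cytokine alone wells.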 In kind it is functional, cell-based. As to conditions: Rattus norvegicus.
The nature of experiment [3]: Luminescence Cell-Based Dose Retest to Confirm Inhibitors of Cancer Stem Cells. [Related pubchem assays (depositor defined):AID2717, AID2721]. As to conditions: Homo sapiens. It counts as functional.
Experiment [4] can be described thus: cells. In kind it is functional, cell-based. This is another data set of the same source.
Experiment [5] in a line: cytotoxicity toward NIH3T3 fibroblasts, dose response, counter-screen, cell-based, ATP luminescence, mouse fibroblasts (AID 2010).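 Also: cells exposed to compound for about 90 hours before reading.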 In kind it is functional.
For experiment [6], the target named is T1, Calpain-2 catalytic subunit (Sus scrofa, UniProt P43367).
T1 sequence (P43367 whole entry): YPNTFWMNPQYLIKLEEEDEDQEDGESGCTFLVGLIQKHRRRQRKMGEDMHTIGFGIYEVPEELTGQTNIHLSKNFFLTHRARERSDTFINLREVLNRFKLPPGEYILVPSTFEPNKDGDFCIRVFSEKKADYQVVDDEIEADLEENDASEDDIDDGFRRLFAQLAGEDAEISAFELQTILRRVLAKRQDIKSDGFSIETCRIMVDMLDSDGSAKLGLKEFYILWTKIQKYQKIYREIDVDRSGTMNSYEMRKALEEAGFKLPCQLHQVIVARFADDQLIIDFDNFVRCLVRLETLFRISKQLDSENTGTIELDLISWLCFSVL
Kind of experiment: pig calpain II inhibitor potency, dose response, biochemical, fluorogenic peptide substrate (AID 1420). It counts as functional.

A short description of experiment [7]: inhibitors of intracellular T. cruzi replication, confirmation, NIH3T3 host cells, beta-gal luminescence (AID 2044).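 Also: intracellular parasites grown in NIH/3T3 mouse fibroblasts as host cells; luminescent beta-galactosidase reporter signal from transgenic T. cruzi replicating inside host cells; inhibitors lower the luminescence signal.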 In kind it is functional, cell-based.
The target in experiment [8] is T2, Ubiquitin-conjugating enzyme E2 N (Homo sapiens, UniProt P61088).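 Also: Dose-response confirmation in a TR-FRET assay detecting UBC13-driven polyubiquitin chain formation, inhibition measured.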
T2 sequence (P61088 whole entry): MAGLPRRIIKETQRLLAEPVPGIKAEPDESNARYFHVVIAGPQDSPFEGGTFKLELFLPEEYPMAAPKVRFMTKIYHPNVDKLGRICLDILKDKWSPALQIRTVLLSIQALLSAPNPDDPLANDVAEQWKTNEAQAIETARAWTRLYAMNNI
It counts as functional.

Experiment [9] deals with BJ. Kind of experiment: cells. As to conditions: Homo sapiens. In kind it is functional, cell-based.
Experiment [10] can be described thus: cytotoxicity toward DRD oncogenic fibroblasts, dose response, cell-based, non-viral oncogenic, luminescence (AID 1934). In kind it is functional. As to conditions: Homo sapiens.
Experiment [11] concerns BJ. In words: cytotoxicity toward BJ-TERT-LT-ST fibroblasts, dose response, cell-based, RAS-independent, luminescence (AID 1935).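 Also: BJ fibroblasts immortalized with TERT plus LT and ST oncogenes.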 It counts as functional. As to conditions: Homo sapiens.
Experiment [12] deals with BJ. In words: cytotoxicity toward BJ-TERT fibroblasts, dose response, cell-based, RAS-independent, luminescence (AID 1933). It counts as functional. As to conditions: Homo sapiens.
In experiment [13] the target is FAD-linked sulfhydryl oxidase ALR (Homo sapiens, UniProt P55789). Kind of experiment: inhibitors of human ALR sulfhydryl oxidase, dose response, biochemical, H2O2 detection, luminescence, cherry-pick (AID 493248).
Chain of FAD-linked sulfhydryl oxidase ALR (P55789 whole entry): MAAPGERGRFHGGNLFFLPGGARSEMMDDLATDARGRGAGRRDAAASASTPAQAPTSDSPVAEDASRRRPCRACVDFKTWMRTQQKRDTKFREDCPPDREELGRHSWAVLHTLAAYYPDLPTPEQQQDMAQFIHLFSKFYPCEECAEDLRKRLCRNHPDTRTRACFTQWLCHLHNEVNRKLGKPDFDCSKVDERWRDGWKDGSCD
The nature of experiment [14]: Luminescence Cell-Based Dose Confirmation HTS to Identify Inhibitors of Platelet Dense Granule Release. [Related pubchem assays: 1663 (Primary HTS), 1678 (Summary of Project)]. In kind it is functional.
Experiment [15] has as its target Luciferin 4-monooxygenase (Photinus pyralis, UniProt P08659). Kind of experiment: firefly luciferase enzyme inhibitors, dose response, biochemical, luminescence (AID 1891).
For experiment [16], the target named is T3, RNA-binding protein pos-1 (Caenorhabditis elegans, UniProt G5EF15).
T3 sequence (G5EF15 whole entry): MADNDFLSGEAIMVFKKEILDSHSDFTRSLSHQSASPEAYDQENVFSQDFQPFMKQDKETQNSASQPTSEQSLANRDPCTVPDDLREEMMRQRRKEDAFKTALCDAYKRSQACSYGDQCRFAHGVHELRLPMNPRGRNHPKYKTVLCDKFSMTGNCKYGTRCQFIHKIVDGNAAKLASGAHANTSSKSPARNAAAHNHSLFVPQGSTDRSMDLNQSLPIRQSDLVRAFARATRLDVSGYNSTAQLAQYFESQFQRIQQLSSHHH
Kind of experiment: inhibitors of POS-1/mex-3 RNA binding, dose response, biochemical, fluorescence polarization (AID 1964).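 Also: purified POS-1 fused to maltose binding protein made in E. coli; potency of compounds blocking POS-1 binding to fluorescent RNA.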 Background: In fluorescence polarisation assays a small probe gives low polarisation when free and higher when bound to something large.

The target of experiment [17] is T4, Zinc finger protein mex-5 (Caenorhabditis elegans, UniProt Q9XUB2).
T4 sequence (Q9XUB2 whole entry): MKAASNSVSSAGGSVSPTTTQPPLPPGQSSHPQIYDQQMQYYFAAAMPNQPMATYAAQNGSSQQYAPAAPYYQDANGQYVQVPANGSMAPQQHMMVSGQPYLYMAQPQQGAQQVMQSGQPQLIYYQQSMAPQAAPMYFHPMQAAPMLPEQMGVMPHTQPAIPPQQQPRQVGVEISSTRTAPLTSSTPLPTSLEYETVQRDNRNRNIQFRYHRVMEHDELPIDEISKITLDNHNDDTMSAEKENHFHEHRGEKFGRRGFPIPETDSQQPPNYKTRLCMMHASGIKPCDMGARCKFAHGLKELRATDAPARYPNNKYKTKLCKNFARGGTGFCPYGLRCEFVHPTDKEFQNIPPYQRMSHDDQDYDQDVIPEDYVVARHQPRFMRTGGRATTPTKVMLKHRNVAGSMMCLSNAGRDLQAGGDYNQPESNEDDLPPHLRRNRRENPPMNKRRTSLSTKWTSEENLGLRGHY
Kind of experiment: MEX-5/TCR-2 RNA interaction inhibitors, dose response, biochemical, C. elegans, fluorescence polarization (AID 1960).

The target in experiment [18] is Cytochrome P450 2C9 (Homo sapiens, UniProt P11712).
Chain of Cytochrome P450 2C9 (P11712 whole entry): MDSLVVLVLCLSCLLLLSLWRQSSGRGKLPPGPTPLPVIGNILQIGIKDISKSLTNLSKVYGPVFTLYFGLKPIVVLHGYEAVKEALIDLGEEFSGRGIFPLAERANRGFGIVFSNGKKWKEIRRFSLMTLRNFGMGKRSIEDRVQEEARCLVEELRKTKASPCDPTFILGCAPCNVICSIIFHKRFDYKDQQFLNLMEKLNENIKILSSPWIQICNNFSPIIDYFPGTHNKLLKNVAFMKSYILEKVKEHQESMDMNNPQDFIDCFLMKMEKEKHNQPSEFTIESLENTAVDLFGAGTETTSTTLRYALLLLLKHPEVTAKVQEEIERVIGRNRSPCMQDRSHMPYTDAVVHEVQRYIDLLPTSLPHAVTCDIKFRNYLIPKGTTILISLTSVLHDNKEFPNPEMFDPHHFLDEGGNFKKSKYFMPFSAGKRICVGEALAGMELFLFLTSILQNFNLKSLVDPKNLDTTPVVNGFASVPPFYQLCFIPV
For experiment [19], the target named is Cytochrome P450 2D6 (Homo sapiens, UniProt P10635).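 Also: CYP2D6 member of a cytochrome P450 panel assay.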
Chain of Cytochrome P450 2D6 (P10635 whole entry): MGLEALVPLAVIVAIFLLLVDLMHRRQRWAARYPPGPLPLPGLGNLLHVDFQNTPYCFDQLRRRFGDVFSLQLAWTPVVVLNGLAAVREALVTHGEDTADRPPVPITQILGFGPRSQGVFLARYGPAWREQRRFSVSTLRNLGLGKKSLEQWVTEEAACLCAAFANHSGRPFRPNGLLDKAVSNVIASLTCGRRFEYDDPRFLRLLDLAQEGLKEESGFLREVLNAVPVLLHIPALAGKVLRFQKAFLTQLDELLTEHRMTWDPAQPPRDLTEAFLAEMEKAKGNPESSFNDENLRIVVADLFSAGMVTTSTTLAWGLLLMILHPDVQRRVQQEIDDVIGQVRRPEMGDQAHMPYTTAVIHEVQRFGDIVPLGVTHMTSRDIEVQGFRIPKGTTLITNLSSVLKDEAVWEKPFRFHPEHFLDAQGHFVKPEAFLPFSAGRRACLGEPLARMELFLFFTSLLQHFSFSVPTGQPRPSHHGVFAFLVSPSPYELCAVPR
A short description of experiment [20]: cells. In kind it is functional.
Experiment [21] in a line: microbe, parasite or virus in culture. It counts as functional. As to conditions: Mycobacterium tuberculosis.
The nature of experiment [22]: HEp-2 cell cytotoxicity, dose response, cytotoxicity control for RSV inhibitor project, HTS (AID 2410). As to conditions: human respiratory syncytial virus. In kind it is functional.

Active and inactive are the calls of the source. Rule as the data show it, for most assays here: actives have a measured EC50 and inactives only a lower limit. A value given as a limit tells only on which side of the number the result lay.

Chain of Luciferin 4-monooxygenase (P08659 whole entry): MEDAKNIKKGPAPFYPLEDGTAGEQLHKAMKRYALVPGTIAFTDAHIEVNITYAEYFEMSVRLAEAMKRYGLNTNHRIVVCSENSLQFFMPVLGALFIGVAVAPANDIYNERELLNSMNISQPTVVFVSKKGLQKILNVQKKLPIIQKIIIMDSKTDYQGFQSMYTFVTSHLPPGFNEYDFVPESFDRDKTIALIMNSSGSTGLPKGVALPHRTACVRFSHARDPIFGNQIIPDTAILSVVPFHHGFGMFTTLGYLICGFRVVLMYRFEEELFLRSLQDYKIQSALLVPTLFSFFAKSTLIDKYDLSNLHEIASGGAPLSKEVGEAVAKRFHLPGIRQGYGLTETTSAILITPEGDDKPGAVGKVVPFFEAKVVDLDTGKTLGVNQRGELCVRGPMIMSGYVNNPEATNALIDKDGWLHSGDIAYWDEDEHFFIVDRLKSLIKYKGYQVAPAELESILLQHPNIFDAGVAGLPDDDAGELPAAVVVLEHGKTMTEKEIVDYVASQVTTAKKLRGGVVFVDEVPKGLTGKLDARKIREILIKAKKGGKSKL

As usually defined, the EC50 is the midpoint of the concentration-response curve. The AC50 is the midpoint of the concentration-response curve, whichever way the signal moves. Regarding `COc1cccc(/C=N/NC(=O)c2ccc(-c3ccccc3)cc2)c1O`, the EC50 was 56.6 µM (active) in experiment [1] and 166 µM (active) in experiment [4]. For the same compound, the figures for the AC50 in [2] and in experiment [3] were 3.83 µM (active) and 3.26 µM (active), respectively.

In the case of `COc1ccc(C(=O)NCCc2nc3cc([N+](=O)[O-])ccc3n2C)cc1`, the EC50 in experiment [1] and in experiment [4] was > 350 µM (not active) in each case.

One may read the IC50 as the concentration that inhibits the measured activity by half. For `Cc1[nH]c2ccccc2c1CCN(Cc1cccnc1)C(S)=Nc1cccc(F)c1`, the figures for the EC50 in experiment [5] and in experiment [7] were > 60 µM (not active) and 0.698 µM (active), respectively. Besides, the IC50 in [6] is given as 44.4 µM (not active).

On to `Cc1ccc2c(c1)N(C(=O)CCC(=O)NCCCN1CCC(Cc3ccccc3)CC1)CCO2`, for which the IC50 in experiment [8] was > 20 µM (inactive). In [2], the AC50 was 20.4 µM (active).

For the compound `CCOC(=O)c1c(N)sc(C(=O)N2CCCCCC2)c1C`, the IC50 in [6] is recorded as > 50 µM (not active).

Turning to `Cc1ccc(C)c(NS(=O)(=O)c2ccc(OCC(=O)NCc3cccnc3)cc2)c1`, the EC50 in [9] is 18.1 µM (active); in experiment [10], > 150 µM (not active); in [11] it was > 150 µM (inconclusive); in experiment [12] it was > 150 µM (not active). In experiment [2], the AC50 is 8.78 µM (active).

As to `CCCC1=Nc2cc(C(=O)N3CCC(C(=O)OCC)CC3)ccc2Sc2ccccc21`, the EC50 was > 150 µM (not active) in experiment [9], 126 µM (active) in experiment [10], > 150 µM (not active) in experiment [11] and > 150 µM (not active) in experiment [12].

On to `COc1ccc(NC(=O)c2cccs2)cn1`, for which the EC50 in experiment [1] was 48.3 µM (active); in experiment [4] it was > 350 µM (not active).

Regarding `COc1ccccc1NC(=O)c1cc(S(=O)(=O)N2CCC3(CC2)OCCO3)ccc1F`, the IC50 in experiment [8] was > 20 µM (inactive).

In the case of `COc1ccc(N2CCN(C(=O)c3ccc(C)cc3Cl)CC2)cc1`, in experiment [13], the AC50 is 3.97 µM (active).

Regarding `CC(C)c1cc(NC(=O)CCl)on1`, the EC50 in [9] is > 150 µM (not active); in [10], > 150 µM (inconclusive); in [11], > 150 µM (not active); in experiment [12] it was > 150 µM (not active).

With `CC(=O)O/N=C1\C(=O)N(Cc2ccc(C)cc2)c2ccccc21`, the IC50 in experiment [6] is on record as 15.5 µM (not active).

For the compound `N#CC1=C(N)Oc2cc(N)ccc2C1c1ccc(F)cc1` (centres undefined), the AC50 in experiment [13] was 2.78 µM (active).

Regarding `O=C(c1ccc(C[S+]([O-])Cc2ccc(Cl)cc2)o1)N1CCN(c2ccccc2)CC1` (centres undefined), the AC50 in experiment [13] was > 100 µM (inactive).

Consider `CCN(CC)C(=O)CSc1nnc(-c2cc(OC)cc(OC)c2)o1`, for which the IC50 in [6] was > 50 µM (not active).

In the case of `Cc1ccc(C(C)C)c(OCCN=C(S)Nc2cccc3ccccc23)c1`, in experiment [6], the IC50 was 6.63 µM (not active).

On to `CC1=NN2C(=N)/C(=C\c3cc(C)n(Cc4ccccc4)c3C)C(=O)N=C2S1`, for which the AC50 in experiment [13] was 0.405 µM (active). The EC50 in experiment [1] and in experiment [4] was > 350 µM (not active) each time.

As to `CCCCOC(=O)c1ccc(N=Nc2c(O)nc(O)c(C#N)c2C)cc1`, the EC50 was > 112 µM (not active) in [14], > 112 µM (not active) in [15], > 300 µM (not active) in experiment [16] and > 300 µM (inconclusive) in experiment [17].

Consider `Cc1ccc(OCCNC(=O)CCc2nc(O)c3c4c(sc3n2)CCCC4)cc1`, for which the EC50 in [1] and in experiment [4] was > 350 µM (not active) in each case.

For `COc1ccc(-c2c(-c3ccc(C#N)cc3)oc(=O)c3cc(OC)c(OC)cc23)cc1`, the IC50 in experiment [8] was > 20 µM (inactive).

Turning to `CCOC(=O)CSc1nc(C(C)(C)C)cc(C(F)(F)F)c1C#N`, the IC50 in [8] was > 20 µM (inactive).

For `COC(=O)c1c(NC(=O)CC2Nc3ccccc3NC2=O)sc(C)c1C` (centres undefined), the AC50 is 17.8 µM (inconclusive) in experiment [18] and 25.1 µM (inconclusive) in [19]. The EC50 in experiment [16] is > 300 µM (not active); in experiment [17], > 300 µM (inconclusive).

Regarding `Cc1ccc(/C=C/C(=O)O)cc1S(=O)(=O)N1CCCCC1`, the half-maximal effective concentration (EC50) in [14] is > 112 µM (not active); in experiment [15], > 112 µM (not active); in experiment [16] it was > 300 µM (not active); in [17] it was > 300 µM (not active).

For `O=C(CCN1C(=O)S/C(=C\c2ccc(F)cc2)C1=O)Nc1ccc(C(=O)O)c(O)c1`, the concentration giving a half-maximal response (EC50) is 3.94 µM (active) in experiment [1] and > 350 µM (not active) in experiment [4]. In addition, in experiment [20], the IC50 was 7.61 µM (active).

For `CC(C)(O)[C@H]1O[C@H]2CC[C@@]3(C)[C@@](O)(CC[C@H]4Cc5c([nH]c6ccccc56)[C@@]43C)C2=CC1=O` [PAXILLINE], the CC50 in experiment [21] was > 40 µM (active). Further, the EC50 in experiment [16] was 16.7 µM (active); in [17] it was 12.3 µM (active).

With `CC(=O)c1ccc(-c2ccc(C(=O)N3CCN(c4ccc(F)cc4)CC3)o2)cc1`, in experiment [6], the IC50 was 6.42 µM (not active).

`COc1cc(NC(=O)CN2c3ccccc3CC2C)cc(OC)c1OC` (centres undefined): the AC50 in experiment [13] was 0.394 µM (active).

On to `C/C(=N\Nc1ccc([N+](=O)[O-])cc1)c1cccc(N)c1`, for which the AC50 in experiment [13] was 0.14 µM (active); in experiment [19], 17.8 µM (inconclusive). The CC50 in [22] was 22 µM (active).

For the compound `CN(C)c1ccnc(Oc2ccc(C(C)(C)C)cc2)c1C#N`, in experiment [6], the IC50 is on record as 4.48 µM (not active).

On to `CCCCc1ccc(NC(=O)C2CCN(S(C)(=O)=O)CC2)cc1`, for which the EC50 in experiment [1] and in [4] was > 350 µM (not active) throughout.

Consider `O=C(NCCCn1ccnc1)C1CCN(S(=O)(=O)c2cc([N+](=O)[O-])ccc2Cl)CC1`, for which the IC50 in experiment [8] was > 20 µM (inactive).

For `COc1ccc(/C=N/NC(=O)CCc2c(C)n[nH]c2C)cc1O`, the AC50 in [13] was 3.71 µM (active).
